Data from ChEMBL document CHEMBL1133309, “Computational binding studies of human pp60c-src SH2 domain with a series of nonpeptide, phosphophenyl-containing ligands” (Bioorg Med Chem Lett, 2000).

These molecules were tested against Proto-oncogene tyrosine-protein kinase Src (Homo sapiens, UniProt P12931) (assay: Binding affinity for Human pp60c-src SH2 domain).
Sequence of Proto-oncogene tyrosine-protein kinase Src (P12931 2-536 limits assumed): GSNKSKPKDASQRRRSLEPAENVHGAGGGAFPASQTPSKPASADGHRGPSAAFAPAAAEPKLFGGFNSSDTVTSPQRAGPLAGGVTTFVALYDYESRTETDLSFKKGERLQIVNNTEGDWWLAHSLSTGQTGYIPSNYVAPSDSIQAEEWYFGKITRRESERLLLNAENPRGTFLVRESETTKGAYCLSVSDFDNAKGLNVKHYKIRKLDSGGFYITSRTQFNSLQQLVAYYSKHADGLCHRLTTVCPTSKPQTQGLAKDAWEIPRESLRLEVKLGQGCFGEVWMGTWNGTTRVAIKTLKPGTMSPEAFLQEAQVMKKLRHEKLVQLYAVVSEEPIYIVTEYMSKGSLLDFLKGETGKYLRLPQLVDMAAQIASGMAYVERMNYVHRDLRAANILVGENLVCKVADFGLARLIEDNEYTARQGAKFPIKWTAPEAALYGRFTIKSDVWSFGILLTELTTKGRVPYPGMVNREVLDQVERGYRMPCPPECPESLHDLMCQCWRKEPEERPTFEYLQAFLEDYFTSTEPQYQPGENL
In the case of `CC(=O)c1cc(CNC(=O)c2ccc(OP(=O)(O)O)cc2)ccc1OCC1CCCCC1`, the IC50 is reported as 69 µM. Work on `CNC(=O)c1cc(CNC(=O)c2ccc(OP(=O)(O)O)cc2)ccc1OCC1CCCCC1` yielded an IC50 of 30 µM. With `O=C(NCc1ccc(OCC2CCCCC2)cc1)c1ccc(OP(=O)(O)O)cc1` the IC50 was > 100 µM.
